Experimental data taken from paper PMC8513079 (Molecules, 2021).
“Also recorded” adds a separate entry of the source. Like-named read-outs stand apart in the source and are kept apart here.

What was measured:
[1] = target: T1, KOR (Halotag-KOR) in HEK293 cells (Homo sapiens, UniProt P41145); experiment: CellKey impedance assay, antagonist mode, KOR; type: cell-based; settings: combined with U-50488H (10^−11–10^−5 M); negative control at 10^−5 concentration; n = 3–4
T1 construct: HaloTag; expressed in transfected cells
T1 sequence (P41145 whole entry): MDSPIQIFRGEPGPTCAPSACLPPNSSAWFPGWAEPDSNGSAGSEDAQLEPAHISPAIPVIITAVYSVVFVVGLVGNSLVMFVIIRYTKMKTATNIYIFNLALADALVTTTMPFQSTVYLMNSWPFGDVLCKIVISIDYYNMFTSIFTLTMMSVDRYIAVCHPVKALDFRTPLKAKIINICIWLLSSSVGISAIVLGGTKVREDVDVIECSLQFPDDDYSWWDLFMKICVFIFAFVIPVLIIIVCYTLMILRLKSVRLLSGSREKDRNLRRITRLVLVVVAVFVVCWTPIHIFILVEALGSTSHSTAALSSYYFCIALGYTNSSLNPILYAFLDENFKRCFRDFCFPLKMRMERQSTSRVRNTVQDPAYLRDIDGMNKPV

[2] = target: MOR (Halotag-MOR) in HEK293 cells (Homo sapiens, UniProt P35372); experiment: cell-based; type: cell-based
Chain of MOR (Halotag-MOR) in HEK293 cells (P35372 whole entry): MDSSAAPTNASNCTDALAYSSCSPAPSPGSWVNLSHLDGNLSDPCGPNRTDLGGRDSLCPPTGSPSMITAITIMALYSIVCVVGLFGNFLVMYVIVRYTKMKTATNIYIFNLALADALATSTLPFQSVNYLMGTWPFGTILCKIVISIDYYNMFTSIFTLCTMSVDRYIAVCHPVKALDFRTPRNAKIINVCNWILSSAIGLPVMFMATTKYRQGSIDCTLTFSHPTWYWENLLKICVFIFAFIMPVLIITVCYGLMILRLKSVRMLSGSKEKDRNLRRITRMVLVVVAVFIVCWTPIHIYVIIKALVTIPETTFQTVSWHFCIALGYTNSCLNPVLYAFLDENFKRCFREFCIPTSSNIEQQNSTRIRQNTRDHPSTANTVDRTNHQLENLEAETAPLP

[3] = target: T2, DOR (T7-tag-DOR) in HEK293 cells (Homo sapiens, UniProt P41143); experiment: cADDis cAMP assay, DOR; type: cell-based
T2 construct: T7-tag; expressed in transfected cells
T2 sequence (P41143 whole entry): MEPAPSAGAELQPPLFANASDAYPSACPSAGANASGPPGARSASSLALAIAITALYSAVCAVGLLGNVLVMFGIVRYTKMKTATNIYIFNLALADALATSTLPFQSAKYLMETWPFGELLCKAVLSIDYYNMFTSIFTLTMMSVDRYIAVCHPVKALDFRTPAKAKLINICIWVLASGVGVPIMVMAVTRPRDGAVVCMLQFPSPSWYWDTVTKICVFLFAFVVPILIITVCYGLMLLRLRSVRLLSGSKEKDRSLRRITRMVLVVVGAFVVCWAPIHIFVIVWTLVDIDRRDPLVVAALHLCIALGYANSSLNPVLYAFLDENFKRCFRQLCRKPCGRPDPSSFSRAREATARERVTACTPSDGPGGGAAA

[4] = target: T1, KOR (Halotag-KOR) in HEK293 cells; experiment: cell-based; settings: HEK293, read-out: Emax, cAMP assay, KOR (Table 1)
DOR (CHO-K1 OPRD1) = experiment: PathHunter β-arrestin recruitment assay, DOR; type: cell-based; settings: 37 °C; for β-arrestin recruitment, DOR, in words: PathHunter, compared with 10^−5 M SNC-80, 90 min, n = 3–6
DOR [5] = experiment: G-protein bias at DOR, cADDis cAMP versus PathHunter β-arrestin; type: cell-based; settings: concluded from cADDis cAMP and PathHunter β-arrestin assays
DOR [6] = settings: rubiscolin-5 compared with rubiscolin-6; cited from earlier work
Description: (§1) In view of the results of our cAMP assay, rubiscolins can be considered DOR-biased agonists, consistent with previous reports. […] Indeed, there is a structural ...

[7] = rubiscolin-6 versus rubiscolin-5; cited from earlier work
Description: as §1

receptor = settings: rubiscolin-6 versus rubiscolin-5; cited from earlier work
Description: as §1

[8] = target: T3, MOR/DOR heteromer (Halotag-MOR/T7-tag-DOR) in HEK293 cells (Homo sapiens, UniProt P35372+P41143); experiment: cADDis cAMP assay, MOR/DOR heteromer; type: cell-based
T3 construct: HaloTag; T7-tag; expressed in transfected cells
T3 sequence (P35372 whole entry): as the sequence (P35372 whole entry) above
T3 sequence (P41143 whole entry): as the sequence (P41143 whole entry) above

MOR (OPRM1) = experiment: PathHunter β-arrestin recruitment assay, MOR; type: cell-based; settings: compared with 10^−5 M DAMGO, 90 min, 37 °C, n = 3–6
[9] = HEK293, read-out: Emax, cAMP assay, MOR (Table 1)
[10] = HEK293, read-out: Emax, cAMP assay, MOR (Table 2)
[11] = HEK293, read-out: Emax, cAMP assay, DOR (Table 1)
[12] = HEK293, read-out: Emax, cAMP assay, DOR (Table 2)
[13] = cADDis cAMP assay, HEK293 T7-tag-DOR

Compound: Oc1ccc2c3c1O[C@H]1c4[nH]c5c(c4C[C@@]4(O)[C@@H](C2)N(CC2CC2)CC[C@]314)C[C@@]1(O)[C@H]2Cc3ccc(O)c4c3[C@@]1(CCN2CC1CC1)[C@H]5O4 [norBNI, norbinaltorphimine]
- antagonistic effect, CellKey, KOR [1]: completely suppressed the agonistic effects of the positive control

Compound: H-YPLDL-OH [Rubiscolin-5, H-Tyr-Pro-Leu-Asp-Leu-OH]
- Emax [2, 9]: 27.5 ± 5.5%
- Emax [2, 10]: 27.5 ± 5.5%
- EC50 [3]: 501 nM
- Emax [3, 11]: 78.4 ± 6.7%
- Emax [3, 12]: 78.4 ± 6.7%
- Emax [4]: 9.6 ± 9%
- β-arrestin recruitment, DOR, in words (DOR (CHO-K1 OPRD1)): the most irrelevant with regard to the activity through the β-arrestin-mediated pathway; also recorded: equivalently negligible
- G-protein bias / agonist type at DOR (DOR [5]): G-protein-biased DOR full agonists without affecting MOR and KOR
- G-protein bias (bias factor), previous study (DOR [6]): more G-protein-biased than rubiscolin-6

Compound: H-YPLDLF-OH [Rubiscolin-6, H-Tyr-Pro-Leu-Asp-Leu-Phe-OH]
- Emax [2, 9]: 14.3 ± 3.2%
- Emax [2, 10]: 14.3 ± 3.2%
- EC50 [3]: 316 nM
- Emax [3, 11]: 103 ± 4.1%
- Emax [3, 12]: 103 ± 4.1%
- effect through G-protein-mediated pathway (cAMP), DOR, in words [3, 13]: robust effect on DOR at 10^−5 concentration; also recorded: relatively stronger than rubiscolin-5 in activating the G-protein-mediated intracellular pathway
- Emax [4]: 39.8 ± 20.5%
- β-arrestin recruitment, DOR, in words (DOR (CHO-K1 OPRD1)): the most irrelevant with regard to the activity through the β-arrestin-mediated pathway; also recorded: equivalently negligible
- G-protein bias / agonist type at DOR (DOR [5]): G-protein-biased DOR full agonists without affecting MOR and KOR
- potency in analgesia relative to rubiscolin-5 [7]: about twice as potent in analgesia as rubiscolin-5
- receptor affinity relative to rubiscolin-5 (receptor): higher receptor affinity

Compound: C[C@@H](NC(=O)[C@@H](N)Cc1ccc(O)cc1)C(=O)NCC(=O)N(C)[C@@H](Cc1ccccc1)C(=O)NCCO [DAMGO, D-Ala(2)-N-Me-Phe(4)-Gly-ol(5)-enkephalin, reference compound]
- Emax ([3]; HEK293; read-out: Emax, cAMP assay, DOR (Table 1)): 90.9 ± 8.9%
- Emax ([3]; HEK293; read-out: Emax, cAMP assay, DOR (Table 2)): 90.9 ± 8.9%
- Emax ([8]; relative to 10^−5 M ML335, cADDis sensor, 50 μM forskolin, 28 °C, 40 min reading, 10^−11–10^−5 M, means ± S.E.M. (n = 6–8), Figure 6, + p < 0.05 vs ML335, read-out: Emax, cAMP assay, MOR/DOR (Table 2)): 91.1 ± 5.4%

Compound: C=CCN1C[C@H](C)N([C@H](c2ccc(C(=O)N(CC)CC)cc2)c2cccc(OC)c2)C[C@H]1C [SNC-80, (+)-4-[(aR)-a-((2S,5R)-4-allyl-2,5-dimethyl-1-piperazinyl)-3-methoxybenzyl]-N,N-diethylbenzamide, reference compound]
- Emax, β-arrestin recruitment, DOR (DOR (CHO-K1 OPRD1); relative to 10^−5 M SNC-80, 90 min stimulation, luminescence, 10^−11–10^−5 M, means ± S.E.M. (n = 3–6), Figure 5B): 100.0 ± 2.6%

Compound: ML335 [reference compound]
- Emax, cAMP assay, MOR (Table 2) [2]: 112.5 ± 5.3%
- effect through G-protein-mediated pathway (cAMP), MOR, in words [2]: full agonist for both MOR and DOR
- pEC50, cAMP assay, MOR (Table 2) [2]: 7.6 ± 0.1 M
- pEC50, cAMP assay, DOR (Table 2) ([3]; -LogEC50; HEK293 T7-tag-DOR; means ± S.E.M. (n = 6–8), Figure 6; # p < 0.05 vs SNC-80): 7.5 ± 0.1 ^# M
- effect through G-protein-mediated pathway (cAMP), DOR, in words [3, 13]: full agonist for both MOR and DOR
- Emax, cAMP assay, DOR (Table 2) ([3]; relative to 10^−5 M SNC-80; HEK293 T7-tag-DOR; forskolin-stimulated; 10^−11–10^−5 M; means ± S.E.M. (n = 6–8), Figure 6; # p < 0.05 vs SNC-80): 111.6 ± 3.6%
- pEC50, cAMP assay, MOR/DOR (Table 2) ([8]; -LogEC50, means ± S.E.M. (n = 6–8), Figure 6, + p < 0.05 vs ML335): 7.0 ± 0.1 M
- effect through G-protein-mediated pathway (cAMP), MOR/DOR heteromer, in words ([8]; cADDis cAMP assay, compared with ML335): full agonist of MOR/DOR
- Emax, cAMP assay, MOR/DOR (Table 2) ([8]; relative to 10^−5 M ML335, cADDis sensor, 50 μM forskolin, 28 °C, 40 min reading, 10^−11–10^−5 M, means ± S.E.M. (n = 6–8), Figure 6, + p < 0.05 vs ML335): 100.0 ± 4.2%
- β-arrestin recruitment, MOR, in words (MOR (OPRM1)): partially recruited β-arrestin through both MOR and DOR
- β-arrestin recruitment, DOR, in words (DOR (CHO-K1 OPRD1)): partially recruited β-arrestin through both MOR and DOR
